Test results taken from ChEMBL document CHEMBL3885881, “DrugMatrix”.

Organism: Rattus norvegicus
Test: DrugMatrix - Regimen: Daily Repeat
Type: toxicity, organism-based, Sprague-Dawley
Design: regimen Daily Repeat, gender Male, age 6-8 weeks
Conditions: in vivo, po, route oral GAVAGE, vehicle .5 % CMC; for ABSOLUTE BASOPHIL / ABSOLUTE EOSINOPHIL / ABSOLUTE LYMPHOCYTE / ABSOLUTE MONOCYTE / ABSOLUTE SEGMENTED NEUTROPHIL / BASOPHIL / EOSINOPHIL / ERYTHROCYTE COUNT / HEMATOCRIT / HEMOGLOBIN / LEUKOCYTE COUNT / LYMPHOCYTE / MEAN CORPUSCULAR HEMOGLOBIN / MEAN CORPUSCULAR HEMOGLOBIN CONCENTRATION / MEAN CORPUSCULAR VOLUME / MONOCYTE / NEUTROPHIL / NUCLEATED RED BLOOD CELLS / PLATELET COUNT: tissue Blood; for ALANINE AMINOTRANSFERASE / ALBUMIN / ALKALINE PHOSPHATASE / ASPARTATE AMINOTRANSFERASE / BLOOD UREA NITROGEN / CARBON DIOXIDE / CHLORIDE / CHOLESTEROL / CREATINE PHOSPHOKINASE / CREATININE / GLUCOSE / LACTATE DEHYDROGENASE / LIPASE / PHOSPHORUS / POTASSIUM / SODIUM / TOTAL BILIRUBIN / TOTAL PROTEIN / URIC ACID: tissue Plasma
[1] = 15 mg/kg, 120 h, dose level Low, time 5 day
[2] = 1500 mg/kg, 72 h, dose level High, time 3 day
[3] = 1500 mg/kg, 120 h, dose level High, time 5 day

## COC(=O)c1ccc(O)cc1 [METHYLPARABEN]
[1]
  ABSOLUTE BASOPHIL: 0 CELLS/uL
  ABSOLUTE EOSINOPHIL: 60.67 CELLS/uL
  ABSOLUTE LYMPHOCYTE: 12673.33 CELLS/uL
  ABSOLUTE MONOCYTE: 0 CELLS/uL
  ABSOLUTE SEGMENTED NEUTROPHIL: 1232.67 CELLS/uL
  BASOPHIL: 0%
  EOSINOPHIL: 0.33%
  ERYTHROCYTE COUNT: 5.42 x10E6/uL
  HEMATOCRIT: 34.93%
  HEMOGLOBIN: 13.97 G/DL
  LEUKOCYTE COUNT: 13.97 x10E3/uL
  LYMPHOCYTE: 91%
  MEAN CORPUSCULAR HEMOGLOBIN: 25.8 pg
  MEAN CORPUSCULAR HEMOGLOBIN CONCENTRATION: 40 G/DL
  MEAN CORPUSCULAR VOLUME: 64.4 fL
  MONOCYTE: 0%
  NEUTROPHIL: 8.67%
  NUCLEATED RED BLOOD CELLS: 0 /100WBC
  PLATELET COUNT: 1233.67 x10E3/uL
  ALANINE AMINOTRANSFERASE: 58.67 u/L
  ALBUMIN: 3.9 G/DL
  ALKALINE PHOSPHATASE: 392.67 u/L
  ASPARTATE AMINOTRANSFERASE: 87.33 u/L
  BLOOD UREA NITROGEN: 17.67 mg/dL
  CARBON DIOXIDE: 26 mmol/L
  CHLORIDE: 101.67 MEQ/L
  CHOLESTEROL: 65.33 mg/dL
  CREATINE PHOSPHOKINASE: 524 u/L
  CREATININE: 0.12 mg/dL
  GLUCOSE: 151 mg/dL
  LACTATE DEHYDROGENASE: 137.67 u/L
  LIPASE: 9.33 u/L
  PHOSPHORUS: 14.13 mg/dL
  POTASSIUM: 6.95 MEQ/L
  SODIUM: 142.07 MEQ/L
  TOTAL BILIRUBIN: 0.23 mg/dL
  TOTAL PROTEIN: 5.7 G/DL
  URIC ACID: 1.93 mg/dL
[2]
  ABSOLUTE BASOPHIL: 0 CELLS/uL
  ABSOLUTE EOSINOPHIL: 0 CELLS/uL
  ABSOLUTE LYMPHOCYTE: 15298 CELLS/uL
  ABSOLUTE MONOCYTE: 225.33 CELLS/uL
  ABSOLUTE SEGMENTED NEUTROPHIL: 3076.67 CELLS/uL
  BASOPHIL: 0%
  EOSINOPHIL: 0%
  ERYTHROCYTE COUNT: 5.36 x10E6/uL
  HEMATOCRIT: 33.07%
  HEMOGLOBIN: 13.37 G/DL
  LEUKOCYTE COUNT: 18.6 x10E3/uL
  LYMPHOCYTE: 82.67%
  MEAN CORPUSCULAR HEMOGLOBIN: 25.03 pg
  MEAN CORPUSCULAR HEMOGLOBIN CONCENTRATION: 40.47 G/DL
  MEAN CORPUSCULAR VOLUME: 61.8 fL
  MONOCYTE: 1.33%
  NEUTROPHIL: 16%
  NUCLEATED RED BLOOD CELLS: 0 /100WBC
  PLATELET COUNT: 1154.33 x10E3/uL
  ALANINE AMINOTRANSFERASE: 60 u/L
  ALBUMIN: 4.03 G/DL
  ALKALINE PHOSPHATASE: 433.33 u/L
  ASPARTATE AMINOTRANSFERASE: 87 u/L
  BLOOD UREA NITROGEN: 18 mg/dL
  CARBON DIOXIDE: 30.33 mmol/L
  CHLORIDE: 95.67 MEQ/L
  CHOLESTEROL: 67.67 mg/dL
  CREATINE PHOSPHOKINASE: 211.67 u/L
  CREATININE: 0.15 mg/dL
  GLUCOSE: 165.67 mg/dL
  LACTATE DEHYDROGENASE: 122 u/L
  LIPASE: 9 u/L
  PHOSPHORUS: 12.87 mg/dL
  POTASSIUM: 6.96 MEQ/L
  SODIUM: 141.63 MEQ/L
  TOTAL BILIRUBIN: 0.23 mg/dL
  TOTAL PROTEIN: 5.77 G/DL
  URIC ACID: 1.4 mg/dL
[3]
  ABSOLUTE BASOPHIL: 0 CELLS/uL
  ABSOLUTE EOSINOPHIL: 0 CELLS/uL
  ABSOLUTE LYMPHOCYTE: 16336 CELLS/uL
  ABSOLUTE MONOCYTE: 67.33 CELLS/uL
  ABSOLUTE SEGMENTED NEUTROPHIL: 1396.67 CELLS/uL
  BASOPHIL: 0%
  EOSINOPHIL: 0%
  ERYTHROCYTE COUNT: 5.64 x10E6/uL
  HEMATOCRIT: 35.9%
  HEMOGLOBIN: 14.27 G/DL
  LEUKOCYTE COUNT: 17.8 x10E3/uL
  LYMPHOCYTE: 92%
  MEAN CORPUSCULAR HEMOGLOBIN: 25.3 pg
  MEAN CORPUSCULAR HEMOGLOBIN CONCENTRATION: 39.77 G/DL
  MEAN CORPUSCULAR VOLUME: 63.6 fL
  MONOCYTE: 0.33%
  NEUTROPHIL: 7.67%
  NUCLEATED RED BLOOD CELLS: 0 /100WBC
  PLATELET COUNT: 1293.33 x10E3/uL
  ALANINE AMINOTRANSFERASE: 45.33 u/L
  ALBUMIN: 4.33 G/DL
  ALKALINE PHOSPHATASE: 338.33 u/L
  ASPARTATE AMINOTRANSFERASE: 85 u/L
  BLOOD UREA NITROGEN: 15.67 mg/dL
  CARBON DIOXIDE: 30 mmol/L
  CHLORIDE: 100.67 MEQ/L
  CHOLESTEROL: 76 mg/dL
  CREATINE PHOSPHOKINASE: 311.33 u/L
  CREATININE: 0.22 mg/dL
  GLUCOSE: 154.33 mg/dL
  LACTATE DEHYDROGENASE: 98 u/L
  LIPASE: 9 u/L
  PHOSPHORUS: 11.73 mg/dL
  POTASSIUM: 6.62 MEQ/L
  SODIUM: 145.9 MEQ/L
  TOTAL BILIRUBIN: 0.27 mg/dL
  TOTAL PROTEIN: 6.1 G/DL
  URIC ACID: 1.9 mg/dL
